Data taken from PubChem BioAssay AID1918998 (Molecular Pharmacology Branch, DTP, NCI, 2023).
“And” between values parts separate entries of the source, which are not always exact repeats. Identical values can stand only once.

Test system: 521955-158-R2-J5-PDC complex spheroid growth
Assay: Anticancer human tumor 521955-158-R2-J5-PDC patient-derived pancreatic carcinoma cell line growth inhibition [AhR]
Settings: for viability, T/C: stronger effect = lower value
In short: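 Agents were dosed in half-log steps down from roughly clinical Cmax, or from 10 microM where Cmax was unknown, alone and with AhR antagonists. Read-out: percent test/control growth of tumor spheroids containing HUVEC and MSC stromal cells.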

[1] = curve of first compound, second compound 0.1 µM
[2] = curve of first compound, second compound 0.316 µM
[3] = curve of first compound, second compound 1 µM
[4] = curve of first compound, second compound 3.16 µM
[5] = curve of first compound, second compound 10 µM
[6] = second compound 0.1 µM, first compound 0.000949 µM
[7] = second compound 0.1 µM, first compound 0.003 µM
[8] = second compound 0.1 µM, first compound 0.00949 µM
[9] = second compound 0.1 µM, first compound 0.03 µM
[10] = second compound 0.1 µM, first compound 0.0949 µM
[11] = second compound 0.1 µM, first compound 0.3 µM
[12] = second compound 0.316 µM, first compound 0.000949 µM
[13] = second compound 0.316 µM, first compound 0.003 µM
[14] = second compound 0.316 µM, first compound 0.00949 µM
[15] = second compound 0.316 µM, first compound 0.03 µM
[16] = second compound 0.316 µM, first compound 0.0949 µM
[17] = second compound 0.316 µM, first compound 0.3 µM
[18] = second compound 1 µM, first compound 0.000949 µM
[19] = second compound 1 µM, first compound 0.003 µM
[20] = second compound 1 µM, first compound 0.00949 µM
[21] = second compound 1 µM, first compound 0.03 µM
[22] = second compound 1 µM, first compound 0.0949 µM
[23] = second compound 1 µM, first compound 0.3 µM
[24] = second compound 3.16 µM, first compound 0.000949 µM
[25] = second compound 3.16 µM, first compound 0.003 µM
[26] = second compound 3.16 µM, first compound 0.00949 µM
[27] = second compound 3.16 µM, first compound 0.03 µM
[28] = second compound 3.16 µM, first compound 0.0949 µM
[29] = second compound 3.16 µM, first compound 0.3 µM
[30] = second compound 10 µM, first compound 0.000949 µM
[31] = second compound 10 µM, first compound 0.003 µM
[32] = second compound 10 µM, first compound 0.00949 µM
[33] = second compound 10 µM, first compound 0.03 µM
[34] = second compound 10 µM, first compound 0.0949 µM
[35] = second compound 10 µM, first compound 0.3 µM
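Throughout, for viability, T/C: spheroids mix tumor cells with HUVEC endothelium and human MSC stroma; luminescence taken as viability surrogate after a week of drug exposure.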

Compound | IC50 [1] [nM] | IC50 [2] [nM] | IC50 [3] [nM] | IC50 [4] [nM] | IC50 [5] [nM] | viability, T/C [6] [%] | viability, T/C [7] [%] | viability, T/C [8] [%] | viability, T/C [9] [%] | viability, T/C [10] [%] | viability, T/C [11] [%] | viability, T/C [12] [%] | viability, T/C [13] [%] | viability, T/C [14] [%] | viability, T/C [15] [%] | viability, T/C [16] [%] | viability, T/C [17] [%] | viability, T/C [18] [%] | viability, T/C [19] [%] | viability, T/C [20] [%] | further results
Nc1ncn(C2CC(O)C(CO)S2)c(=O)n1 (configuration not stated) + CC(CO)NC(=O)c1cc(-c2ccc(Cl)cc2)nn(-c2cnn(C)c2)c1=O | > 300 | > 300 | > 300 | > 300 | > 300 | 79.4 | 89.4 | 97.9 | 89.9 | 72.6 | 71.2 | 115 | 107 | 107 | 116 | 94.1 | 84.4 | 107 | 107 | 106 | viability, T/C [21]: 108%; viability, T/C [22]: 73%; viability, T/C [23]: 99.3%; viability, T/C [24]: 102%; viability, T/C [25]: 116%; viability, T/C [26]: 141%; viability, T/C [27]: 111%; viability, T/C [28]: 86.1%; viability, T/C [29]: 73.1%; viability, T/C [30]: 73.8%; viability, T/C [31]: 81.3%; viability, T/C [32]: 102%; viability, T/C [33]: 76.9%; viability, T/C [34]: 88.3%; viability, T/C [35]: 81.5%
CCc1c2c(nc3ccc(O)cc13)-c1cc3c(c(=O)n1C2)COC(=O)[C@]3(O)CC | – | – | – | – | – | – | – | – | – | – | – | – | – | – | – | – | – | – | – | – | viability, T/C (compound 0.000949 µM): 73.4% and 63.5% and 74.2%; viability, T/C (compound 0.003 µM): 71% and 71.7% and 44.2%; viability, T/C (compound 0.00949 µM): 38.3% and 39.2% and 18.2%; viability, T/C (compound 0.03 µM): 22% and 28.9% and 12%; viability, T/C (compound 0.0949 µM): 16.9% and 22.7% and 10%; viability, T/C (compound 0.3 µM): 14.9% and 13.4% and 8.11%; IC50 (curve of compound): 6.31 nM and 6.13 nM and 2.39 nM
CC(C)CC(NC(=O)C(Cc1ccccc1)NC(=O)c1cnccn1)B(O)O (configuration not stated) + Cc1cncc(-c2nc(NCCc3c[nH]c4ccccc34)c3ncn(C(C)C)c3n2)c1 | 16.5 | 16.7 | 16.8 | 15.1 | 6.44 | 103 | 103 | 91.8 | 4.93 | 0.17 | 0.27 | 118 | 92.1 | 97.5 | 0.39 | 0.25 | 0.21 | 107 | 128 | 98.2 | viability, T/C [21]: 1.49%; viability, T/C [22]: 2.14%; viability, T/C [23]: 0.89%; viability, T/C [24]: 141%; viability, T/C [25]: 127%; viability, T/C [26]: 81.7%; viability, T/C [27]: 0.28%; viability, T/C [28]: 2.97%; viability, T/C [29]: 2.29%; viability, T/C [30]: 144%; viability, T/C [31]: 126%; viability, T/C [32]: 11.6%; viability, T/C [33]: 0.28%; viability, T/C [34]: 2.54%; viability, T/C [35]: 0.26%
